From the supplement of paper PMC11368000 come the findings set out here.

One assay has as its system 1535 (donor line of iPSC-derived cardiomyocytes). In words: POD (EC10) for decrease in total cell number (cytotoxicity) vs vehicle; higher = less potent (higher point of departure). Conditions: exposure time: 90 min. Here is the method:
(§1)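 Human iPSC-derived cardiomyocytes from 16 donors were exposed for 90 min at 37 °C to each PFAS at 0.1, 1, 10 and 100 µM in 0.5% DMSO, 384-well plates. Kinetic Ca2+ flux (FLIPR) and Hoechst nuclei counts were normalised to vehicle wells and fitted with a hierarchical Bayesian Hill model to give donor-specific PODs: EC05 for beat-rate increase or decrease and for decay-to-rise ratio increase (QT proxy), EC95 for peak-frequency loss (asystole), EC10 for total cell number loss. 0.03 µM is the lower bound.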
Compound `O=C(O)CCC(F)(F)C(F)(F)C(F)(F)C(F)(F)C(F)(F)C(F)(F)C(F)(F)F` [3-Perfluoroheptylpropanoic_acid] registered a POD vs vehicle of over 100 µM.

In turn, `OCCC(F)(F)C(F)(F)C(F)(F)C(F)(F)C(F)(F)C(F)(F)F` [6:2 Fluorotelomer alcohol] came in with a POD vs vehicle of over 100 µM.

Consider `O=S(=O)(O)CCC(F)(F)C(F)(F)C(F)(F)C(F)(F)C(F)(F)C(F)(F)F` [6:2 Fluorotelomer sulfonic acid], for which the POD vs vehicle is over 100 µM.

Regarding `OCCC(F)(F)C(F)(F)C(F)(F)C(F)(F)C(F)(F)C(F)(F)C(F)(F)C(F)(F)F` [8:2 Fluorotelomer alcohol], the POD vs vehicle is over 100 µM.

The compound `O=S(=O)(O)CCC(F)(F)C(F)(F)C(F)(F)C(F)(F)C(F)(F)C(F)(F)C(F)(F)C(F)(F)F` [8:2 Fluorotelomer sulfonic acid] returned a POD vs vehicle of over 100 µM.

Consider `O=C(O)C(F)(F)C(F)(F)C(F)(F)C(F)(F)C(F)(F)C(F)(F)C(F)(F)C(F)(F)Cl` [9-Chloro-perfluorononanoic_acid], for which the POD vs vehicle is over 100 µM.

Regarding `O=P(O)(O)CCC(F)(F)C(F)(F)C(F)(F)C(F)(F)C(F)(F)C(F)(F)C(F)(F)C(F)(F)F` [((Perfluorooctyl)ethyl)phosphonic_acid], the POD vs vehicle is over 100 µM.

The compound `OCC(F)(F)C(F)(F)C(F)(F)C(F)(F)C(F)(F)C(F)F` [Dodecafluoroheptanol] registered a POD vs vehicle of over 100 µM.

`COC(=O)C(F)(F)C(F)(F)OC(F)(C(F)(F)F)C(F)(F)OC(F)=C(F)F` (stereo not given) [Methyl_perfluoro(3-(1-ethenyloxypropan-2-yloxy)propanoate)] returned a POD vs vehicle of over 100 µM.

The compound `CN(CCO)S(=O)(=O)C(F)(F)C(F)(F)C(F)(F)C(F)(F)C(F)(F)C(F)(F)C(F)(F)C(F)(F)F` [N-Methyl-N-(2-hydroxyethyl)perfluorooctanesulfonamide] showed a POD vs vehicle of over 100 µM.

`NC(=O)C(F)(F)C(F)(F)C(F)(F)C(F)(F)C(N)=O` [Octafluoroadipamide]: the POD vs vehicle was over 100 µM.

Compound `O=C(O)C(F)(F)C(F)(F)C(F)(F)OC(F)(F)F` [Perfluoro(4-methoxybutanoic)_acid] showed a POD vs vehicle of over 100 µM.

On to `O=C(O)C(F)(F)C(F)(F)OC(F)(F)F` [Perfluoro-3-methoxypropanoic_acid], for which the POD vs vehicle was over 100 µM.

Take `O=C(O)C(F)(F)C(F)(F)C(F)(F)F` [Perfluorobutanoic_acid]: the POD vs vehicle is over 100 µM.

In turn, `O=C(O)C(F)(F)C(F)(F)C(F)(F)C(F)(F)C(F)(F)C(F)(F)C(F)(F)C(F)(F)C(F)(F)F` [Perfluorodecanoic_acid] gave a POD vs vehicle of over 100 µM.

In turn, `NS(=O)(=O)C(F)(F)C(F)(F)C(F)(F)C(F)(F)C(F)(F)C(F)(F)F` [Perfluorohexanesulfonamide] displayed a POD vs vehicle of over 100 µM.

In turn, `O=S(=O)(O)C(F)(F)C(F)(F)C(F)(F)C(F)(F)C(F)(F)C(F)(F)F` [Perfluorohexanesulfonic_acid] returned a POD vs vehicle of over 100 µM.

The compound `O=C(O)C(F)(F)C(F)(F)C(F)(F)C(F)(F)C(F)(F)F` [Perfluorohexanoic_acid] registered a POD vs vehicle of over 100 µM.

The next assay concerns 1565 (donor line of iPSC-derived cardiomyocytes). The description is as above. Conditions: exposure time: 90 min. Here is the method:
as §1
For `O=C(O)CCC(F)(F)C(F)(F)C(F)(F)C(F)(F)C(F)(F)C(F)(F)C(F)(F)F` [3-Perfluoroheptylpropanoic_acid], the POD vs vehicle is over 100 µM.

Turning to `OCCC(F)(F)C(F)(F)C(F)(F)C(F)(F)C(F)(F)C(F)(F)F` [6:2 Fluorotelomer alcohol], the POD vs vehicle was over 100 µM.

Consider `O=S(=O)(O)CCC(F)(F)C(F)(F)C(F)(F)C(F)(F)C(F)(F)C(F)(F)F` [6:2 Fluorotelomer sulfonic acid], for which the POD vs vehicle was over 100 µM.

With `OCCC(F)(F)C(F)(F)C(F)(F)C(F)(F)C(F)(F)C(F)(F)C(F)(F)C(F)(F)F` [8:2 Fluorotelomer alcohol], the POD vs vehicle was over 100 µM.

`O=S(=O)(O)CCC(F)(F)C(F)(F)C(F)(F)C(F)(F)C(F)(F)C(F)(F)C(F)(F)C(F)(F)F` [8:2 Fluorotelomer sulfonic acid] displayed a POD vs vehicle of over 100 µM.

Regarding `O=C(O)C(F)(F)C(F)(F)C(F)(F)C(F)(F)C(F)(F)C(F)(F)C(F)(F)C(F)(F)Cl` [9-Chloro-perfluorononanoic_acid], the POD vs vehicle was over 100 µM.

With `O=P(O)(O)CCC(F)(F)C(F)(F)C(F)(F)C(F)(F)C(F)(F)C(F)(F)C(F)(F)C(F)(F)F` [((Perfluorooctyl)ethyl)phosphonic_acid], the POD vs vehicle was over 100 µM.

For the compound `OCC(F)(F)C(F)(F)C(F)(F)C(F)(F)C(F)(F)C(F)F` [Dodecafluoroheptanol], the POD vs vehicle is over 100 µM.

In the case of `COC(=O)C(F)(F)C(F)(F)OC(F)(C(F)(F)F)C(F)(F)OC(F)=C(F)F` (stereo not given) [Methyl_perfluoro(3-(1-ethenyloxypropan-2-yloxy)propanoate)], the POD vs vehicle was over 100 µM.

`CN(CCO)S(=O)(=O)C(F)(F)C(F)(F)C(F)(F)C(F)(F)C(F)(F)C(F)(F)C(F)(F)C(F)(F)F` [N-Methyl-N-(2-hydroxyethyl)perfluorooctanesulfonamide] showed a POD vs vehicle of over 100 µM.

On to `NC(=O)C(F)(F)C(F)(F)C(F)(F)C(F)(F)C(N)=O` [Octafluoroadipamide], for which the POD vs vehicle was over 100 µM.

For the compound `O=C(O)C(F)(F)C(F)(F)C(F)(F)OC(F)(F)F` [Perfluoro(4-methoxybutanoic)_acid], the POD vs vehicle is over 100 µM.

`O=C(O)C(F)(F)C(F)(F)OC(F)(F)F` [Perfluoro-3-methoxypropanoic_acid] came in with a POD vs vehicle of over 100 µM.

Turning to `O=C(O)C(F)(F)C(F)(F)C(F)(F)F` [Perfluorobutanoic_acid], the POD vs vehicle was over 100 µM.

In turn, `O=C(O)C(F)(F)C(F)(F)C(F)(F)C(F)(F)C(F)(F)C(F)(F)C(F)(F)C(F)(F)C(F)(F)F` [Perfluorodecanoic_acid] registered a POD vs vehicle of 81.5 µM.

In turn, `NS(=O)(=O)C(F)(F)C(F)(F)C(F)(F)C(F)(F)C(F)(F)C(F)(F)F` [Perfluorohexanesulfonamide] yielded a POD vs vehicle of over 100 µM.

Turning to `O=S(=O)(O)C(F)(F)C(F)(F)C(F)(F)C(F)(F)C(F)(F)C(F)(F)F` [Perfluorohexanesulfonic_acid], the POD vs vehicle is over 100 µM.

Compound `O=C(O)C(F)(F)C(F)(F)C(F)(F)C(F)(F)C(F)(F)F` [Perfluorohexanoic_acid] returned a POD vs vehicle of over 100 µM.

The test system of another assay is 20032 (donor line of iPSC-derived cardiomyocytes). The assay is described as above. Conditions: exposure time: 90 min. As for the experimental part: as §1
With `O=C(O)CCC(F)(F)C(F)(F)C(F)(F)C(F)(F)C(F)(F)C(F)(F)C(F)(F)F` [3-Perfluoroheptylpropanoic_acid], the POD vs vehicle was over 100 µM.

Take `OCCC(F)(F)C(F)(F)C(F)(F)C(F)(F)C(F)(F)C(F)(F)F` [6:2 Fluorotelomer alcohol]: the POD vs vehicle was over 100 µM.

For the compound `O=S(=O)(O)CCC(F)(F)C(F)(F)C(F)(F)C(F)(F)C(F)(F)C(F)(F)F` [6:2 Fluorotelomer sulfonic acid], the POD vs vehicle was over 100 µM.

Consider `OCCC(F)(F)C(F)(F)C(F)(F)C(F)(F)C(F)(F)C(F)(F)C(F)(F)C(F)(F)F` [8:2 Fluorotelomer alcohol], for which the POD vs vehicle was over 100 µM.

`O=S(=O)(O)CCC(F)(F)C(F)(F)C(F)(F)C(F)(F)C(F)(F)C(F)(F)C(F)(F)C(F)(F)F` [8:2 Fluorotelomer sulfonic acid] gave a POD vs vehicle of over 100 µM.

`O=C(O)C(F)(F)C(F)(F)C(F)(F)C(F)(F)C(F)(F)C(F)(F)C(F)(F)C(F)(F)Cl` [9-Chloro-perfluorononanoic_acid] came in with a POD vs vehicle of over 100 µM.

Compound `O=P(O)(O)CCC(F)(F)C(F)(F)C(F)(F)C(F)(F)C(F)(F)C(F)(F)C(F)(F)C(F)(F)F` [((Perfluorooctyl)ethyl)phosphonic_acid] gave a POD vs vehicle of over 100 µM.

`OCC(F)(F)C(F)(F)C(F)(F)C(F)(F)C(F)(F)C(F)F` [Dodecafluoroheptanol] gave a POD vs vehicle of 58.4 µM.

Turning to `COC(=O)C(F)(F)C(F)(F)OC(F)(C(F)(F)F)C(F)(F)OC(F)=C(F)F` (stereo not given) [Methyl_perfluoro(3-(1-ethenyloxypropan-2-yloxy)propanoate)], the POD vs vehicle was found to be 0.591 µM.
